Experimental data as given in patent US10292991B2, “Small molecule therapeutic compounds that reduce the incidence of intracerebral hemorrhage and brain microhemorrhages” (St. Michaels Hospital, priority 2016, dated 2019).
Read-outs that look alike come from different tables or passages of the source.

Key:
[1] = tested on: β-Pix MO-induced hemorrhage in zebrafish; assay: βPix morpholino-induced hemorrhage in zebrafish, rescue by drugs; assay type: in vivo, zebrafish (Danio rerio)
Experimental: Morpholino oligonucleotides (MOs) were custom-synthesized by Gene Tools (Carvalis, Oreg.); their sequences are shown in Table 1.
Danieau buffer (58 mM NaCl, 0.7 mM KCl, 0.4 mM MgSO4, 0.6 mM Ca(NO3)2, 5.0 mM HEPES, pH 7.6) was used to dilute the MO solutions to 0.2 mM final concentration. Individual wells were placed on a 1.0% agarose plate, in which the embryos were positioned. Afterwards, the MO solution was injected through the cell yolk into embryos of 1 to 4 cell-stage. The injected quantities varied from 0.5 to 15 ng.
bbhm292 zebrafish mutant has a hypomorphic mutation in βPix, resulting in ICH/BMH and hydrocephalus. The MO is βPixexon6-MO which blocks splicing of exon 6 and results in premature protein termination. […] Higher doses of βPixexon6-MO (up to 8 ng) result in a lack of blood circulation, and therefore no ICH/BMH was detected. Injection of 8 ng results in complete missplicing of βPix and therefore a null phenotype, whereas lower doses retain some normally spliced βPix. The βPixexon6-MO sequence is 5′-[…]-3′ [SEQ ID NO: 1]. 3Pixexon6-MO was injected into the embryos at the 1-2 cell stage, and compounds were added 12 hpf.
The first three morpholino pairs were good for the efficacy study. Efficacy assays were performed using Artemether (ARM, Sigma) and artemesunate (ART, GMP). […] Treating these morphants with the drugs rescued the ICH phenotype.

Integrin β3 (Itgb3) mRNA = assay: qRT-PCR of integrin β3 mRNA in atorvastatin-treated zebrafish larvae; assay type: in vivo, zebrafish (Danio rerio); settings: 1 μmol/L atorvastatin plus 500 nmol/L drug, n=3
Experimental: (§1) qRT-PCR was used to assess relative expression of selected genes (an average of two biological trial and three technical replicates and each trial is a pool of 60 larvae/treatment), using β-actin as the housekeeping gene control. 3 dpf, Tg(Flk:GFP; Gata:dsRed) zebrafish larvae were used for RNA extraction and cDNA synthesis. Atorvastatin and drug treatment were performed as previously mentioned in drug screening. Total RNA was extracted from these larvae (a pool of 50-60 larvae/treatment) using the RNeasy extraction kit (Qiagen, Mississauga, ON, CAN) and treated with DNase. The concentration of total RNA was determined spectrophotometrically at 260/280 nm using a NanoDrop™ spectrophotometer. First-strand cDNA was synthesized from 1 μg of total RNA using random hexamer primers.
(§2) In each case, forward primer is shown on the top and reverse primer on the bottom.
(§3) PCR was carried out in a 20 μl total volume and included 1×PCR buffer, 1.25 mM MgCl2, 0.25 mM dNTP, 1 U Taq polymerase, 0.5 μmol/L forward, and reverse primers and 1 μl cDNA.

CCM3 (Ccm3) mRNA = assay: qRT-PCR of CCM3 mRNA in atorvastatin-treated zebrafish larvae; assay type: in vivo, zebrafish (Danio rerio); settings: 1 μmol/L atorvastatin plus 500 nmol/L drug, n=3
Experimental: as §1, §2, §3

[2] = tested on: bbh mutant zebrafish (mutation in βPix), spontaneous ICH; assay: bbh (bubblehead) mutant genetic model of brain hemorrhage; assay type: in vivo, zebrafish (Danio rerio); settings: Danio rerio, read-out: EC50 to rescue brain hemorrhage, bbh Mutant Model
From the text: A specific zebrafish line with a gene mutation called bubblehead (bbh) was used. This line has spontaneous ICH. Bubblehead phenotype is caused by a mutation in βPix. Adult homozygous zebrafish were viable and fertile. […] More than 85% of zebrafish larvae display an ICH phenotype.

[3] = Spectrophotometer analysis of blood hemoglobin concentration (Drabkin's method); assay type: in vivo, C57BL/6 mice; settings: 25 mg/kg or 100 mg/kg for 3 days, n=4; no statistical difference between groups
Experimental: Drabkin's reagent (Sigma Aldrich) was used for calorimetric quantification of hemoglobin concentration at 540 nm. C57BL/6 mice were randomly assigned to three groups (each n=4): Control, Low-dose ARM, and High-dose ARM. For ARM groups, three days of 25 mg/kg/day and 100 mg/kg/day ARM were administered for low and high dose, respectively. Blood from saphenous vein were collected at day 4 and tested for hemoglobin concentration using UV 3600 Shimadzu spectrophotometer. A standard curve was generated using a known standard solution of cyanmethemoglobin, and blood concentrations of Hb was compared to the standard curve.
To assess possible anemia effect from ARM treatment as some previous studies speculated, blood samples were tested for hemoglobin concentration after ARM treatment. Blood hemoglobin concentration was assessed using Drabkins' method. Spectrophotometer data was compared to a standard curve from standard cyanmethemoglobin concentrations. The control group received no drug. The Treatment Dose group received 3 days injection of low dose ARM (25 mg/kg), 4× Treatment Dose group received 3 days injection of high dose ARM (100 mg/kg).

VE-Cadherin (Cdh5) mRNA = assay: qRT-PCR of VE-cadherin mRNA in atorvastatin-treated zebrafish larvae; assay type: in vivo, zebrafish (Danio rerio); settings: 1 μmol/L atorvastatin plus 500 nmol/L drug, n=3
Experimental: as §1, §2, §3

[4] = tested on: brain hemorrhage induced by 1 μM atorvastatin in zebrafish; assay: Atorvastatin-induced brain hemorrhage (ICH) model in zebrafish, rescue by drugs; settings: for EC50: Danio rerio
Experimental: Zebrafish were set up the night before the experiment day. In the morning of the experimental day, we put breeders together for mating and fertilization. 6 hours post-fertilization (hpf), statins was added into a 96-well plate holding 100 μl water with 7 to 8 fish eggs in each well, which was optimized through a serial pilot experiments. Statins were dissolved in DMSO and diluted with 0.5% of DMSO water into a working solution. 100 μl water containing 0.5% of DMSO was the medium for all wells in the final assessment.
For screening NIH compound libraries, 5 μM of each of the drugs from the library was added at 24 hpf into wells containing fish eggs treated with 1 μM ATV since 6 hpf. Hemorrhage positive control wells were treated with ATV but not treated with any drugs. Negative controls were not treated with any chemicals (fish with 0.5% of DMSO water). Geranylgeranyl pyrophosphate (GGPP, 4 mg/L) was used as positive rescue control.
Brain hemorrhage was assessed 72 hpf (66 hours after addition of statins) using stereomicroscopy by two observers. Percentage of brain hemorrhage was used as final readout. Compounds showing more than 70% of rescue of the brain hemorrhages in the initial test were re-tested to generate a final list of hits from the library.
All subsequent EC50 assays of positive compounds were performed with protocols established and optimized during the screening.

In the case of `CO[C@H]1O[C@@H]2O[C@@]3(C)CC[C@H]4[C@H](C)CC[C@@H]([C@H]1C)[C@@]24OO3` [Artemether], the EC50 ([1]; Danio rerio, Table 6, read-out: EC50 to rescue hemorrhage induced by βPix - exon6 morpholino) is reported as 0.0516 ± 0.0117 µM, the “Efficacy on β-Pix MO Hemorrhage” value ([1]; inhibition of β-Pix MO-induced hemorrhage) is reported as “+++++ (One + sign represents 20% inhibition on 1 μmol/L ATV or β-Pix MO-induced hemorrhage.)” and the “Integrin β3 transcription level (qRT-PCR)” value (Integrin β3 (Itgb3) mRNA) is reported as “upregulation”. The “CCM3 transcription level (qRT-PCR)” value (CCM3 (Ccm3) mRNA) was “returned to normal”, the EC50 [2] was 0.0375 µM and the “Anemia (blood hemoglobin concentration)” value [3] was “did not cause anemia”. The “VE-cadherin transcription level (qRT-PCR)” value (VE-Cadherin (Cdh5) mRNA) was “upregulation”, the “Hemorrhage in zebrafish treated with 1 μmol/L atorvastatin and drug” value ([4]; 500 nmol/L drug, 3 dpf) was “no hemorrhage was observed” and the “Efficacy on atorvastatin Hemorrhage” value ([4]; ATV model induced by 1 μmol/L atorvastatin, inhibition of hemorrhage) was “+++++ (One + sign represents 20% inhibition on 1 μmol/L ATV or β-Pix MO-induced hemorrhage.)”. The EC50 ([4]; read-out: EC50 (in nmol/L) on atorfvastatin model (μmol/L)) was 64 nmol/L and the EC50 ([4]; read-out: EC50 to rescue brain hemorrhage, Statin Model) was 24.7 nmol/L.
